This is an account of results in patent US11773078B2, “Furin inhibitors” (Glaxosmithkline Intellectual Property Development Limited, priority 2018, dated 2023).

The structures appear in SMILES notation. Counter-ions that a name gives are not always drawn.

The target of assay [1] is T1, Furin (108-574-Tev-Flag-His) enzyme (Homo sapiens, UniProt P09958).
T1 construct: Furin (108-574-Tev-Flag-His) enzyme was expressed and purified from CHO cells; TEV cleavage site (C); FLAG (C); His (C); made in house; host or cells: CHO cells
Description: Furin enzyme assay. The class given is biochemical. An outline of the steps:
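CHO-expressed, purified furin construct at 40 pM in 100 mM HEPES pH7.5, 1 mM CaCl2, 0.005% Triton X-100. Eleven-point 1:3 series, 0.00017–10 μM final, incubated 2 h at room temperature and read on Envision. pXC50 from four-parameter fit.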

Assay [2] concerns the target T2, furin (endogenous protease) in U20S cells (Homo sapiens, UniProt P09958).
T2 construct: the endogenous protease cleaves GFP; endogenous in cells; host or cells: U2OS cells transduced with a BacMam reporter
Description: Furin cell-based assay (image-based, Golgi-targeted GFP with BMP10 furin/PCSK cleavage site).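 Further: Read-out is mean GFP fluorescence of Golgi puncta per cell by high-content imaging, retained when furin inhibited, over an eleven-point 0.00017–10 µM series, four-parameter fit.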 The settings on record: 24-hour incubation, read-out: furin golgi cell pXC50 (converted).
Description: This assay uses an image-based platform to evaluate the intracellular activity of compounds of the invention. Reactions were performed in black 384-well, tissue culture-treated, clear bottom plates (Greiner). Compounds under analysis were dissolved in DMSO (1.0 mM) and serially diluted 1 to 3 with DMSO through eleven dilutions. This creates a final compound concentration range from 0.00017 to 10 μM, and 0.1 μL of each concentration was transferred to the corresponding well of the assay plate. Assays were initiated by the addition of U20S cells simultaneously transduced with a BacMam-delivered construct containing a Golgi-targeting sequence followed by a 12-amino acid furin/PCSK cleavage site from Bone Morphogenic Protein 10 (BMP10) and then GFP at the C terminus. […] Briefly, frozen cells are thawed in assay media (Dulbecco's Modified Eagles Medium Nutritional Mixture F-12 (Ham) without phenol red containing 5% FBS) and diluted to deliver 6000 cells/well (50 μL) to the plate using a Multidrop Combi (Thermo).
After a 24-hour incubation period at 37° C., the cells are stained with Cell Mask Deep Red, fixed in paraformaldehyde and the nuclei stained using Ho33342. The Golgi-targeted GFP forms bright punctate clusters within the cell. In the absence of a furin inhibitor, the endogenous protease cleaves GFP from its N-acetylgalactosaminyltransferase-2 Golgi tether, releasing GFP into the Golgi lumen where fluorescence is diluted below the threshold of assay sensitivity. […] Cellular GFP intensity is determined by image-based acquisition (Incell 2200, Perkin Elmer) at 40× magnification with 4 fields measured per well. Multi-scale tophat segmentation is used to identify the GFP-tagged puncta and to quantitate the average fluorescence of all puncta on a per cell basis. Cellular toxicity is determined in parallel.
Data were analyzed using AbaseXE 7.3, utilizing a four-parameter curve fit equation. The following values were used to define limits and/or constraints for each of the four parameters: • Minimum—limit −10 to 10 • Maximum—90 to 110 • Slope—limit 0.5 to 2.0 • pXC50 confidence interval—10
Raw counts obtained from the respective plate reader (Perkin Elmer) were captured for data analysis. Curves were generated using the equation: Y=A+[(B−A)/(1+(10^C/x)^D)] • where: A=minimum response • B=maximum response • C=log 10*XC50 • D=slope factor • x=log 10 compound concentration [M]
The results were recorded as pXC50 values (−C in the above equation)

T1 sequence (P09958 108-574): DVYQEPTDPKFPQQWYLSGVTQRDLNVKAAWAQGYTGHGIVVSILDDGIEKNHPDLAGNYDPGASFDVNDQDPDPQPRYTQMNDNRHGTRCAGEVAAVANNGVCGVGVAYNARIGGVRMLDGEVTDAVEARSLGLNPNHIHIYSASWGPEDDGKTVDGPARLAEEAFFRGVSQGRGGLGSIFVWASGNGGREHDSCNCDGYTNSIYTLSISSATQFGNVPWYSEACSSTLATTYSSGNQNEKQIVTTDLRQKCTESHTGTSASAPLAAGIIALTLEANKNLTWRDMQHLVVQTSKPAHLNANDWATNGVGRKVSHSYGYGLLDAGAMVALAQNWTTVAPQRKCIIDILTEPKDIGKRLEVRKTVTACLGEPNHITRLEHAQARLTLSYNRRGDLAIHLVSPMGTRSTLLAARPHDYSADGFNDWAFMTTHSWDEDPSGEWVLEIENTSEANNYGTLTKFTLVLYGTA
T2 sequence (P09958 108-794): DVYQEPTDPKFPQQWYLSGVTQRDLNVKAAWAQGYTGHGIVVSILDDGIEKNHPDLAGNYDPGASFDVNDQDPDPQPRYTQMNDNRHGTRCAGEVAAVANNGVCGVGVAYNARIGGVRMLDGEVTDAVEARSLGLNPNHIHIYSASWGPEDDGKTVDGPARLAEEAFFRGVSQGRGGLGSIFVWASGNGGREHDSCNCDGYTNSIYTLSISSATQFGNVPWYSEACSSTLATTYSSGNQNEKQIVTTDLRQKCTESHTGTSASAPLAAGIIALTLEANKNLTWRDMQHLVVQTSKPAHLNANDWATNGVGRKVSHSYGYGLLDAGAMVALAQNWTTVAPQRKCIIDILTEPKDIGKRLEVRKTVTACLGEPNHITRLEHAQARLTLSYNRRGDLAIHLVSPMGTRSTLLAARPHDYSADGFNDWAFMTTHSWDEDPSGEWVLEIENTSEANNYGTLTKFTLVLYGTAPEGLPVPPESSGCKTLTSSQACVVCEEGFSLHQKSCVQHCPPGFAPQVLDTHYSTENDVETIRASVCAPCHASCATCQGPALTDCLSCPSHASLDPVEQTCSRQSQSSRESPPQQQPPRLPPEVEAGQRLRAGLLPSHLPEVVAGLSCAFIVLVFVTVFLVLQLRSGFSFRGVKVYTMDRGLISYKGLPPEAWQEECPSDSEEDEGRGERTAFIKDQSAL

`CN1CCN(c2ncc(Oc3cc(CN4CCC(NC(=O)NS(C)(=O)=O)CC4)cc(-c4cc(Cl)cc(Cl)c4)n3)cn2)CC1` [Example 328, N-((1-((2-(3,5-dichlorophenyl)-6-((2-(4-methylpiperazin-1-yl)pyrimidin-5-yl)oxy)pyridin-4-yl)methyl)piperidin-4-yl)carbamoyl)methanesulfonamide]: the “furin enzyme pIC50” value in assay [1] is recorded as 8.3. In addition, the EC50 in assay [2] is 12.6 nM.

Consider `CN1CCN(c2ncc(Oc3cc(CN4CCC(NC(N)=O)CC4)cc(-c4cc(Cl)cc(Cl)c4)n3)cn2)CC1` [Example 329, 1-(1-((2-(3,5-dichlorophenyl)-6-((2-(4-methylpiperazin-1-yl)pyrimidin-5-yl)oxy)pyridin-4-yl)methyl)piperidin-4-yl)urea], for which the “furin enzyme pIC50” value in assay [1] was determined as 8.2. For the same compound, the EC50 in assay [2] is 15.8 nM.

Regarding `CN1CCN(c2ncc(Oc3cc(CN4CCO[C@H](CO)CC4)cc(-c4cc(Cl)cc(Cl)c4)n3)cn2)CC1` [Example 330, (S)-(4-((2-(3,5-Dichlorophenyl)-6-((2-(4-methylpiperazin-1-yl)pyrimidin-5-yl)oxy)pyridin-4-yl)methyl)-1,4-oxazepan-7-yl)methanol, 4 hydrochloride], in assay [1], the “furin enzyme pIC50” value was determined as 8. For the same compound, the EC50 in assay [2] was 10 nM.

As to `CN1CCN(c2ncc(Oc3cc(CN4CCC(P(C)(C)=O)CC4)cc(-c4cc(Cl)cc(Cl)c4)n3)cn2)CC1` [Example 331, (1-((2-(3,5-Dichlorophenyl)-6-((2-(4-methylpiperazin-1-yl)pyrimidin-5-yl)oxy)pyridin-4-yl)methyl)piperidin-4-yl)dimethylphosphine oxide, 4 hydrochloride], the “furin enzyme pIC50” value in assay [1] is on record as 7.8. Further, the EC50 in assay [2] was 20 nM.

With `CN1CCN(c2ncc(Nc3cc(CN4CCC(CC(=O)O)CC4)cc(-c4cc(Cl)cc(Cl)c4)n3)cn2)CC1` [Example 332, 2-(1-((2-(3,5-Dichlorophenyl)-6-((2-(4-methylpiperazin-1-yl)pyrimidin-5-yl)amino)pyridin-4-yl)methyl)piperidin-4-yl)acetic acid, 4 hydrochloride], the “furin enzyme pIC50” value in assay [1] is 8.3. Moreover, the EC50 in assay [2] was 50.1 nM.

For `Cc1c(CN2CCC(CC(=O)O)CC2)cc(-c2cc(Cl)cc(Cl)c2)nc1Oc1cnc(N2CCN(C)CC2)cn1` [Example 333, 2-(1-((6-(3,5-Dichlorophenyl)-3-methyl-2-((5-(4-methylpiperazin-1-yl)pyrazin-2-yl)oxy)pyridin-4-yl)methyl)piperidin-4-yl)acetic acid], the “furin enzyme pIC50” value in assay [1] is reported as 8.7. The EC50 in assay [2] was 12.6 nM.

For `CC(=O)NCC1CCN(Cc2cc(Oc3cnc(N4CC5CCC(C4)N5)nc3)nc(-c3cc(Cl)cc(Cl)c3)c2)CC1` [Example 335, N-((1-((2-((2-(3,8-diazabicyclo[3.2.1]octan-3-yl)pyrimidin-5-yl)oxy)-6-(3,5-dichlorophenyl)pyridin-4-yl)methyl)piperidin-4-yl)methyl)acetamide], the “furin enzyme pIC50” value in assay [1] is listed as 9.2. Besides, in assay [2], the EC50 was 1.26 nM.

As for `COC(=O)NCC1CCN(Cc2cc(Oc3cnc(N4CCN5CCC4C5)nc3)nc(-c3cc(Cl)cc(Cl)c3)c2)CC1` (centres unmarked) [Example 336, methyl ((1-((2-((2-(1,4-diazabicyclo[3.2.1]octan-4-yl)pyrimidin-5-yl)oxy)-6-(3,5-dichlorophenyl)pyridin-4-yl)methyl)piperidin-4-yl)methyl)carbamate], the “furin enzyme pIC50” value in assay [1] amounted to 9.1. Moreover, the EC50 in assay [2] was 3.98 nM.

Turning to `O=C(O)[C@H]1[C@@H]2CCN(Cc3cc(Oc4cnc(N5CCN6CCC5C6)nc4)nc(-c4cc(Cl)cc(Cl)c4)c3)CC[C@@H]21` (stereo partly drawn) [Example 337, (1R,7S,8r)-4-((2-((2-(1,4-diazabicyclo[3.2.1]octan-4-yl)pyrimidin-5-yl)oxy)-6-(3,5-dichlorophenyl)pyridin-4-yl)methyl)-4-azabicyclo[5.1.0]octane-8-carboxylic acid], in assay [1], the “furin enzyme pIC50” value is on record as 9. Moreover, in assay [2], the EC50 was 7.94 nM.

In the case of `FC1CCN(Cc2cc(Oc3cnc(N4CCN5CCC4C5)nc3)nc(-c3cc(Cl)cc(Cl)c3)c2)CC1` (centres unmarked) [Example 338, 4-(5-((6-(3,5-dichlorophenyl)-4-((4-fluoropiperidin-1-yl)methyl)pyridin-2-yl)oxy)pyrimidin-2-yl)-1,4-diazabicyclo[3.2.1]octane], the “furin enzyme pIC50” value in assay [1] was determined as 8. In assay [2], the EC50 was 12.6 nM.

Consider `CC(CCN1CCN(c2cnc(Oc3cc(CN4CCC(CCO)CC4)cc(-c4cc(Cl)cc(Cl)c4)n3)cn2)CC1)C(=O)O` (centres unmarked) [Example 341, 4-(4-(5-((6-(3,5-dichlorophenyl)-4-((4-(2-hydroxyethyl)piperidin-1-yl)methyl)pyridin-2-yl)oxy)pyrazin-2-yl)piperazin-1-yl)-2-methylbutanoic acid], for which the “furin enzyme pIC50” value in assay [1] is 8.8. In assay [2], the EC50 is 10 nM.

Consider `OCCC1CCN(Cc2cc(Oc3cnc(N4CCNCC4)cn3)nc(-c3cc(Cl)cc(Cl)c3)c2)CC1` [Example 342, 2-(1-((2-(3,5-dichlorophenyl)-6-((5-(piperazin-1-yl)pyrazin-2-yl)oxy)pyridin-4-yl)methyl)piperidin-4-yl)ethanol], for which the “furin enzyme pIC50” value in assay [1] amounted to 8.7. Further, the EC50 in assay [2] is 5.01 nM.

Turning to `CC(C)(O)CN1CCN(c2cnc(Oc3cc(CN4CCC(CC(=O)O)CC4)cc(-c4cc(Cl)cc(Cl)c4)n3)cn2)CC1` [Example 343, 2-(1-((2-(3,5-dichlorophenyl)-6-((5-(4-(2-hydroxy-2-methylpropyl)piperazin-1-yl)pyrazin-2-yl)oxy)pyridin-4-yl)methyl)piperidin-4-yl)acetic acid], in assay [1], the “furin enzyme pIC50” value was determined as 8.7. The EC50 in assay [2] is 63.1 nM.

Regarding `O=C(O)CC1CCN(Cc2cc(Oc3ccc(N4CCN5CCC4C5)nn3)nc(-c3cc(Cl)cc(Cl)c3)c2)CC1` (centres unmarked) [Example 344, 2-(1-((2-((6-(1,4-diazabicyclo[3.2.1]octan-4-yl)pyridazin-3-yl)oxy)-6-(3,5-dichlorophenyl)pyridin-4-yl)methyl)piperidin-4-yl)acetic acid], the “furin enzyme pIC50” value in assay [1] worked out at 8.4. Besides, in assay [2], the EC50 was 79.4 nM.

In the case of `CCN1CCCN(c2cnc(Oc3cc(CN4CCC(CC(=O)O)CC4)cc(-c4cc(Cl)cc(Cl)c4)n3)cn2)CC1` [Example 345, 2-(1-((2-(3,5-dichlorophenyl)-6-((5-(4-ethyl-1,4-diazepan-1-yl)pyrazin-2-yl)oxy)pyridin-4-yl)methyl)piperidin-4-yl)acetic acid], in assay [1], the “furin enzyme pIC50” value is 8.6. In assay [2], the EC50 was 12.6 nM.

With `CN1C[C@@H]2C[C@H]1CN2c1cnc(Oc2cc(CN3CCC(CC(=O)O)CC3)cc(-c3cc(Cl)cc(Cl)c3)n2)cn1` [Example 346, 2-(1-((2-(3,5-dichlorophenyl)-6-((5-((1S,4S)-5-methyl-2,5-diazabicyclo+2.2.1+heptan-2-yl)pyrazin-2-yl)oxy)pyridin-4-yl)methyl)piperidin-4-yl)acetic acid], the “furin enzyme pIC50” value in assay [1] is reported as 8.5. Moreover, the EC50 in assay [2] is 12.6 nM.

For `CC(C)N1CCN(c2cnc(Oc3cc(CN4CCC(CC(=O)O)CC4)cc(-c4cc(Cl)cc(Cl)c4)n3)cn2)CC1` [Example 347, 2-(1-((2-(3,5-dichlorophenyl)-6-((5-(4-isopropylpiperazin-1-yl)pyrazin-2-yl)oxy)pyridin-4-yl)methyl)piperidin-4-yl)acetic acid], in assay [1], the “furin enzyme pIC50” value came to 8.5. In assay [2], the EC50 was 15.8 nM.

As to `O=C(O)CC1CCN(Cc2cc(Oc3cnc(N4CCN5CCC4C5)cn3)nc(-c3cc(Cl)cc(Cl)c3)c2)CC1` (centres unmarked) [Example 348, 2-(1-((2-((5-(1,4-diazabicyclo[3.2.1]octan-4-yl)pyrazin-2-yl)oxy)-6-(3,5-dichlorophenyl)pyridin-4-yl)methyl)piperidin-4-yl)acetic acid], the “furin enzyme pIC50” value in assay [1] came to 8.4. Moreover, the EC50 in assay [2] is 50.1 nM.

As for `CC(O)CCN1CCN(c2cnc(Oc3cc(CN4CCC(CC(=O)O)CC4)cc(-c4cc(Cl)cc(Cl)c4)n3)cn2)CC1` (centres unmarked) [Example 349, 2-(1-((2-(3,5-dichlorophenyl)-6-((5-(4-(3-hydroxybutyl)piperazin-1-yl)pyrazin-2-yl)oxy)pyridin-4-yl)methyl)piperidin-4-yl)acetic acid], in assay [1], the “furin enzyme pIC50” value came to 8.6. For the same compound, the EC50 in assay [2] was 10 nM.

For the compound `CN1CCN(c2cnc(Oc3cc(CN4CCC(CCO)CC4)cc(-c4cc(Cl)cc(Cl)c4)n3)cn2)CC1` [Example 350, 2-(1-((2-(3,5-dichlorophenyl)-6-((5-(4-methylpiperazin-1-yl)pyrazin-2-yl)oxy)pyridin-4-yl)methyl)piperidin-4-yl)ethanol], the “furin enzyme pIC50” value in assay [1] was 8.6. The EC50 in assay [2] was 1.26 nM.

For `CC(CC1CCN(Cc2cc(Oc3cnc(N4CCCN(C)CC4)cn3)nc(-c3cc(Cl)cc(Cl)c3)c2)CC1)C(=O)O` (centres unmarked) [Example 351, 3-(1-((2-(3,5-dichlorophenyl)-6-((5-(4-methyl-1,4-diazepan-1-yl)pyrazin-2-yl)oxy)pyridin-4-yl)methyl)piperidin-4-yl)-2-methylpropanoic acid], in assay [1], the “furin enzyme pIC50” value is recorded as 9.4. Also, in assay [2], the EC50 is 25.1 nM.

Turning to `CN1C2CC1CN(c1cnc(Oc3cc(CN4CCC(CC(=O)O)CC4)cc(-c4cc(Cl)cc(Cl)c4)n3)cn1)C2` [Example 352, 2-(1-((2-(3,5-dichlorophenyl)-6-((5-(6-methyl-3,6-diazabicyclo[3.1.1]heptan-3-yl)pyrazin-2-yl)oxy)pyridin-4-yl)methyl)piperidin-4-yl)acetic acid], the “furin enzyme pIC50” value in assay [1] worked out at 8.2. Also, in assay [2], the EC50 was 50.1 nM.
